# Experimental data from patent US20250161264A1, “(AMPAR-PAM)-NMDA RECEPTOR ANTAGONIST COMBINATION THERAPY FOR TREATMENT OF MENTAL CONDITIONS AND DISORDERS” (Gilgamesh Pharmaceuticals, Inc., priority 2022, published 2025).
# What was measured:
# Male Sprague Dawley rats = experiment: Rat forced swim test (FST); assay type: in vivo; settings: Example 3; Compound 18R 1, 3.2 or 10 mg/kg s.c., second injection vehicle or BIIB-104 0.03 mg/kg; 23.5 h before Swim 2
# Experimental: Animals. Male Sprague Dawley rats, aged 8-10 weeks, are used in the experiments. Animals are housed in groups of 2 under controlled temperature (22±3° C.) and relative humidity (30-70%) conditions, with 12-hour light/dark cycles, and with ad libitum food and water. All efforts are made to minimize suffering.
# Drugs and Drug Administration. Test compounds, vehicle, and the positive control desipramine are administered subcutaneously (s.c.), with doses calculated based on the free base. A pharmacologically inert vehicle is used. All compounds are administered at a volume of 5 mL/kg. Test compounds (in each case, an AMPAR-PAM+an NMDAR-ant together, or either compound alone) and vehicle are administered 0.5 h after the start of the training swim (Swim 1) and 23.5 h before the test swim (Swim 2). Desipramine is administered 3 times, at 23.5 h, 5 h, and 1 h before the test swim (Swim 2), each time at a dose of 20 mg/kg.
# Forced Swim Test (FST). […] Group size is N=10 per treatment. […]
# Behavioral scoring is conducted by observers who are blind to the treatment groups. Animals are continuously observed during Swim 2 and the total time spent engaging in the following behaviors is recorded: immobile, swimming, and climbing. […]
# Drugs and Drug Administration. Test compounds, vehicle, and the positive control desipramine are administered subcutaneously (s.c.), with doses calculated based on the free base. […]
# [1] = tested on: Male Wistar Han or Wistar Kyoto rats; experiment: Chronic mild stress (CMS) procedure, sucrose intake; assay type: in vivo, rat; settings: stressed rats
# Experimental: (§1) Animals. Male Wistar Han or Wistar Kyoto rats (Charles River, Sulzfeld, Germany) are brought into the laboratory at the age of 5 weeks (around 100 g), approximately one month before the start of the experiment. Except for the first 10 days after arrival, when the animals are housed in groups of 10, they are singly housed with food and water freely available, and maintained on a 12-h light/dark cycle in constant temperature (22±2° C.) and humidity (45±5%) conditions.
# (§2) Drugs and Drug Administration. Test compounds or vehicle are administered subcutaneously (s.c.), with doses calculated based on the free base. A pharmacologically inert vehicle (e.g., saline) is used. All compounds are administered at a volume of 2 mL/kg. Test compounds (in each case, BIIB-104+Compound 18R together, or either compound alone) and vehicle are administered as described below.
# Chronic Mild Stress (CMS) Procedure and Sucrose Preference. Male rats (250-350 g) are habituated to drinking 1% sucrose to establish a stable level of sucrose intake. […]
# (§3) After sucrose intake has been measured, rats are dosed with BIIB-104 or vehicle once daily for up to 4 weeks (Table 1).
# Sucrose intake is measured once per week, in each case before drug administration for that day (˜24 h after the previous drug administration). […]
# [2] = tested on: Male Wistar Han or Wistar Kyoto rats; experiment: Elevated plus maze (EPM) in CMS rats; assay type: in vivo, rat; settings: stressed rats; third week of drug testing (typically day 16); 5-min test
# Experimental: as §1
# Drugs and Drug Administration. Test compounds or vehicle are administered subcutaneously (s.c.), with doses calculated based on the free base. A pharmacologically inert vehicle (e.g., saline) is used. […]
# as §3
# Elevated Plus Maze (EPM), Animals are tested in two non-transparent boxes, which consist of two open (50×11×40 cm) and two closed (50×11×40 cm) arms. […] The animals are placed in the center of the apparatus and the time spent in each arm, and number of entries into open and closed arms are recorded during a 5-min test.
# All rats (all groups in Table 1) are assessed in the EPM in the third week of drug testing (typically day 16). Stressed vehicle-treated rats (S1) have higher levels of anxiety measured by a lower % time spent in open arms compared to control vehicle-treated rats (C1). […]
# [3] = tested on: Male Wistar Han or Wistar Kyoto rats; experiment: Novel object recognition (NOR) test in CMS rats; assay type: in vivo, rat; settings: stressed rats; third week of drug testing (typically day 17)
# Experimental: as §1
# Drugs and Drug Administration. Test compounds or vehicle are administered subcutaneously (s.c.), with doses calculated based on the free base. A pharmacologically inert vehicle (e.g., saline) is used. All compounds are administered at a volume of 2 mL/kg. […]
# as §3
# Novel Object Recognition (NOR) Test. […] Rats are returned to the open field and the duration of exploration of each object is recorded in a 5-min test. A recognition index is calculated according to the formula: time of novel object exploration minus time of familiar object exploration, divided by total exploration time (novel plus familiar objects). During NOR sessions, the number of line crossings is recorded as a measure of locomotor activity.
# All rats (all groups in Table 1) are assessed in the NOR in the third week of drug testing (typically day 17). […]
# Male C57BL/6 mice [4] = experiment: Accelerating rotarod; assay type: in vivo, mouse; settings: Compound 18R 3.2, 10 or 32 mg/kg s.c.; BIIB-104 0.03 mg/kg s.c. 0-30 min prior; 5 min and 30 min after second injection
# Experimental: Animals. Male C57BL/6 mice (8-10 weeks old) are housed in groups of >2 under standard environmentally controlled conditions (22 to 24° C.; relative humidity of 30 to 70%) with a standard 12-h light cycle. Food and water are available ad libitum.
# as §2, with “compounds and” for “compounds or”, “vehicle” for “vehicle (e.g., saline)”, “of 10” for “of 2”
# Rotarod Procedure. Mice will be trained to stay on a rotating bar (‘rotarod’) on days −4 and −2 by being placed on a bar rotating at 4 rpm for 3 min for 3 sessions separated by ˜10 min. On days −1 and 0, this will be repeated using a faster speed of 15 rpm. Mice that have a fall latency <80 s during training will be omitted from the study. On day 1, mice will be administered (s.c.) vehicle or BIIB-104 (0.03 mg/kg) 0-30 min prior to vehicle or Compound 18R (3.2, 10, or 32 mg/kg), for a total of 8 groups of n=10-12/group. Five min after the second injection, mice will be placed on the rotarod which will accelerate from 4 to 40 rpm over 300 s. The latency of mice to fall will be recorded. […]
# Male C57BL/6 mice [5] = experiment: Visual discrimination task; assay type: in vivo, mouse; settings: Compound 18R 10, 32 or 100 mg/kg s.c.; BIIB-104 0.03 mg/kg s.c. 0-30 min prior
# Experimental: Animals Male C57BL/6 mice (8-10 weeks old) are housed in groups of >2 under standard environmentally controlled conditions (22 to 24° C.; relative humidity of 30 to 70%) with a standard 12-h light cycle. Five days prior to the start of operant conditioning experiments, all subjects are placed on a food restriction diet designed to maintain a stable 80-85% of free feeding weight.
# Drugs and Drug Administration. Test compounds and vehicle are administered subcutaneously (s.c.), with doses calculated based on the free base. A pharmacologically inert vehicle is used. All compounds are administered at a volume of 10 mL/kg. Test compounds (in each case, BIIB-104+Compound 18R together, or either compound alone) and vehicle are administered as described below. Mice are tested in a randomized cross-over design such that different compound combinations are tested in the same mice and a sample size of n=8-12/group is achieved. Compound testing sessions are separated by at least 3 days.
# Visual Discrimination Procedure. A cohort of mice is trained to perform the visual discrimination task according to published methods (Dillon et al., 2009, Behavioural Brain Research 204, 67-76). The testing apparatus is a standard operant chamber (Med Associates, St Albans, VT). […]
Molecule,immobility time (Male Sprague Dawley rats),"sucrose intake ([1]; vs vehicle-treated stressed rats, Compound 18R 1.5 mg/kg i.p. day 1, 24 h later)","durability of the effect on sucrose intake ([1]; Compound 18R day 1, then vehicle (S2) or BIIB-104 0.03 mg/kg s.c. (S4) daily days 2-28)",time spent in open arms [2],preference for the novel object (recognition index) [3],latency to fall off the rotarod (Male C57BL/6 mice [4]),visual discrimination test accuracy (Male C57BL/6 mice [5])
CN[C@@]1(c2ccc(F)cc2)CCCCC1=O [Compound 18R],dose-dependent decrease in immobility time,increase in sucrose intake,1-2 weeks,"greater time in the open arms than stressed vehicle-treated rats (S1), but less time than unstressed vehicle-treated rats (C1)",limited preference for exploring the novel object,dose-dependently reduces the latency of mice to fall,dose-dependently decreases visual discrimination test accuracy
"pesampator [BIIB-104, reference compound]",,,,,,does not change latency to fall,
